The target in this experiment is Integrin alpha-IIb/beta-3 (Homo sapiens, UniProt P05106+P08514). The experiment can be described thus: Inhibition of platelet aggregation in vitro using fibrinogen binding assay.
Chain of Integrin alpha-IIb/beta-3 (P05106 27-788 limits assumed): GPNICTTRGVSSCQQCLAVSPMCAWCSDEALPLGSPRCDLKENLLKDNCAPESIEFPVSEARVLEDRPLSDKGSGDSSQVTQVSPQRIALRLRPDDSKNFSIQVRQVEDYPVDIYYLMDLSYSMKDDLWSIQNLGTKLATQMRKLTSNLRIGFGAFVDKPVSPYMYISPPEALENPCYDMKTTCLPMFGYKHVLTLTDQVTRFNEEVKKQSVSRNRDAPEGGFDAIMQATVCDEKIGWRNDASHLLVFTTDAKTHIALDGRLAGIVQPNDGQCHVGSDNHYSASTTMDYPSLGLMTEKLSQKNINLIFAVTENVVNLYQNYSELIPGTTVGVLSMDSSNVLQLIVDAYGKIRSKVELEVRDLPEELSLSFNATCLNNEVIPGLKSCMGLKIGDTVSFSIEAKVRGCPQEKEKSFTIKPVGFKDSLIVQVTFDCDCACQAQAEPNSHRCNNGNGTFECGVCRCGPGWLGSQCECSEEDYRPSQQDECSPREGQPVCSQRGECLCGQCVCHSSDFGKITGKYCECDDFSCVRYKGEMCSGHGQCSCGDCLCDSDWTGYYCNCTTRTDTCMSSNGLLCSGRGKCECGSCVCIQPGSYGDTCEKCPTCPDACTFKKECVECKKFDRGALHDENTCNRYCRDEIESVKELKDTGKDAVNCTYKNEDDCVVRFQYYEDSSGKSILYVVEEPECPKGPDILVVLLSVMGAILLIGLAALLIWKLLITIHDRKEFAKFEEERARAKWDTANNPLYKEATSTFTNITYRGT
Chain of Integrin alpha-IIb/beta-3 (P08514 32-887 limits assumed): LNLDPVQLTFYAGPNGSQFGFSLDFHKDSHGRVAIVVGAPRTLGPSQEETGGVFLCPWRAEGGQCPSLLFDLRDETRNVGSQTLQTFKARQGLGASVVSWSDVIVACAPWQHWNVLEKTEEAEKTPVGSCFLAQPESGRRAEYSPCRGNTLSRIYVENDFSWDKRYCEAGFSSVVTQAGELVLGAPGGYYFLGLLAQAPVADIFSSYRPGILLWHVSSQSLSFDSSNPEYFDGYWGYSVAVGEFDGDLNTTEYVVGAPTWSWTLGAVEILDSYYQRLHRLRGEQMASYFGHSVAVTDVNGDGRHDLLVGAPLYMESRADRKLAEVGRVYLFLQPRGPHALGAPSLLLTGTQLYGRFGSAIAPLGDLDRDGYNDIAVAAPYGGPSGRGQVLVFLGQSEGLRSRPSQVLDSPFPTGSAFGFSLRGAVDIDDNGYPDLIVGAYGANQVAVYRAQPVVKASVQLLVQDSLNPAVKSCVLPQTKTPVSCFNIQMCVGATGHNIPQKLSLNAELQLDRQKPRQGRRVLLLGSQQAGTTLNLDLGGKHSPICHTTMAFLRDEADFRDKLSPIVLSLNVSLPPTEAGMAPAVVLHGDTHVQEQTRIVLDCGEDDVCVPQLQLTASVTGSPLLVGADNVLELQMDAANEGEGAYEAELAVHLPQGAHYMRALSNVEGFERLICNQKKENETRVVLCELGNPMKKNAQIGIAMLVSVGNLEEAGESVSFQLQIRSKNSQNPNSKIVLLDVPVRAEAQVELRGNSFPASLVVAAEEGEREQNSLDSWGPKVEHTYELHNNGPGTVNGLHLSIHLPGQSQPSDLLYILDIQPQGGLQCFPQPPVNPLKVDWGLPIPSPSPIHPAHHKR
Chain of Integrin alpha-IIb/beta-3 (P08514 891-1039 limits assumed): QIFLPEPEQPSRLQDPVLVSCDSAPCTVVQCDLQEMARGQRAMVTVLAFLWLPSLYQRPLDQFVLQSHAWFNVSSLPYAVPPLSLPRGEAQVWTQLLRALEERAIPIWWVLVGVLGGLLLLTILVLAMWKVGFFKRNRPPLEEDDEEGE

The IC50 is the concentration that gives 50% inhibition. A high value points to weaker potency in that assay. Consider `CC(C)[C@H]1NC(=O)c2cccc(c2F)CNC(=O)[C@H](CC(=O)O)NC(=O)CNC(=O)[C@H](CCCN=C(N)N)N(C)C1=O`, for which the IC50 is 4 nM.

(Values after ChEMBL document CHEMBL1128818, “Synthesis and antiplatelet activity of DMP 757 analogs” (Bioorg Med Chem Lett, 1995).)
